Measurements as given in patent US8685658B2, “Compositions and methods for the treatment of diseases associated with aberrant cilia assembly and regulation” (Fox Chase Cancer Center, priority 2006, dated 2014).

Assays:
[1] = tested on: hTERT-RPE1 cells; test: serum-induced ciliary disassembly in ciliated hTERT-RPE1 cells; assay type: cell-based
Procedure: hTERT-RPE1 cells were grown in DMEM with 10% fetal bovine serum (FBS). For analysis of ciliary disassembly, cells were plated at 30% confluence in plates containing glass cover slips, and starved for 48 hours (in Opti-MEM or regular DMEM, without added serum) to induce cilia formation, followed by treatments described hereinbelow. For siRNA treatment, cells were initially plated in DMEM/10% FBS in plates containing cover slips, and 12 hours later siRNA transfection was performed in Opti-MEM with Oligofectamine (Invitrogen) according to manufacturer recommendations, and fixed 48 hours after transfection, following treatments indicated in Results. The remaining cells on plate were lysed, then either directly analyzed by Western blot analysis, or used for immunoprecipitation (IP)-kinase reaction to measure AurA activity.
Cells were fixed with 4% paraformaldehyde (10 min) then methanol (5 min), permeabilized with 1% Triton-X100 in PBS, blocked in 1×PBS, 3% BSA, and incubated with antibodies using standard protocols. Primary antibodies included rabbit polyclonal anti-Aurora A and anti-phospho-AuroraA/T288, (Cell Signaling), mouse mAb anti-HEF1 (14A11), polyclonal anti-γ-tubulin (Sigma), anti-α-tubulin mAb (Sigma), anti-acetylated α-tubulin mAb (clone 6-11B-1, Sigma, and clone K(Ac)40 Biomol), anti-IFT88 and anti-IFT20 (gifts of G. Pazour), mouse anti-glutamylated tubulin (Sigma), and anti-HDAC6 (Upstate). Secondary antibodies labeled with Alexa-488, Alexa-568, and Alexa-633, and TOTO-3 dye to stain DNA, were from Molecular Probes/Invitrogen. DNA was co-stained in some experiments by propidium iodine (Sigma) or Draq5 (Alexis), Confocal microscopy was performed using a Radiance 2000 laser scanning confocal microscope ((Carl Zeiss, Thornwood, N.Y.) coupled to a Nikon Eclipse E800 upright microscope (Nikon). Statistical analysis of data by one-way ANOVA was performed using GraphPad Instat 3.0 (San Diego, Calif.).

[2] = target: T1, AurA (Homo sapiens, UniProt O14965); test: AurA activation and HEF1 phosphorylation in serum-stimulated hTERT-RPE1 cells (Western blot); assay type: cell-based; conditions: vs DMSO, 2 and 24 hour time points after serum
T1 construct: endogenous AurA immunoprecipitated from mammalian cells; endogenous in cells; host or cells: hTERT-RPE1
T1 sequence (O14965 1-403): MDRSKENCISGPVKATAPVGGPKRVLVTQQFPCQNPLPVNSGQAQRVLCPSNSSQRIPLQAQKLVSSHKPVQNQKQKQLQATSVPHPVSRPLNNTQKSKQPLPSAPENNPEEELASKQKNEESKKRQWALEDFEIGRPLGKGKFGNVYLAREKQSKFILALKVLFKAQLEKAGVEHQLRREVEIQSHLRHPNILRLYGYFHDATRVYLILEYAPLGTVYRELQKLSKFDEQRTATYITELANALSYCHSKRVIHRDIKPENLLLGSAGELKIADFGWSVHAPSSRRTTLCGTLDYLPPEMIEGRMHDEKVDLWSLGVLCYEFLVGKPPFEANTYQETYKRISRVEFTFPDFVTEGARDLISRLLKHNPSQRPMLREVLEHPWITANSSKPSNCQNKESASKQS
Procedure: For microinjection, recombinant glutathione-S-transferase (GST), GST fused AurA mutants T288A and D274N) produced from BL21 (DE3) bacteria were purified using the MicroSpin GST Purification Module (Amersham Biotech.). Purified recombinant AurA was purchased from Upstate; this AurA was pre-activated based on incubation with ATP. […] To prepare lysates for Western blotting and IP, mammalian cells were disrupted by M-PER lysis buffer (Pierce) supplemented with EDTA-free protease inhibitor cocktail (Roche). Lysates used for IP were incubated overnight with antibody at 4° C., subsequently incubated for 2 hours with protein A/G-sepharose (Pierce), washed, and resolved by SDS-PAGE. Western blotting was performed using standard procedures and proteins visualized using the West-Pico system (Pierce). Antibodies used included mouse monoclonal antibody (mAb) anti-HEF1 2G9 (Pugacheva and Golemis, 2005), anti-α-tubulin mAb (Sigma), anti-AurA (BD Bioscience) for Western blotting, anti-AurA rabbit polyclonal (Cell Signaling) for IP, anti-Phospho-AurA/T288 (BioLegend), anti-Phospho-AurA/T288 (Cell Signaling), anti-HDAC6 rabbit polyclonal (Upstate; 1:5000), anti-HDAC2 rabbit polyclonal (Invitrogen) and mAb anti-β-actin (AC15, Sigma), anti-IFT88 and anti-IFT20. Secondary horseradish peroxidase (HRP)-conjugated antibodies were from Amersham Biotech. […]

[3] = target: AurB (Homo sapiens, UniProt Q96GD4); conditions: cited from earlier work
Sequence of AurB (Q96GD4 whole entry): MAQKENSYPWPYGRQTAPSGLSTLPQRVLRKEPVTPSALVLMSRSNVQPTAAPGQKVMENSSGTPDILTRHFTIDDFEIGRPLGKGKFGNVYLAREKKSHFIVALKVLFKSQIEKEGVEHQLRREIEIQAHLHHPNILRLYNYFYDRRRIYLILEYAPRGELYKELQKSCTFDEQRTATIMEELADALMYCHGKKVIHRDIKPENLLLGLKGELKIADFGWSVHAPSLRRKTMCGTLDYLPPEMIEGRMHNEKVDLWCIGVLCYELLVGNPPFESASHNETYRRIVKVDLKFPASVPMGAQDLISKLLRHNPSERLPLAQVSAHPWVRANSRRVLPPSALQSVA

[4] = target: FGFR1 (Homo sapiens, UniProt P11362); conditions: cited from earlier work
Sequence of FGFR1 (P11362 22-822, species assumed): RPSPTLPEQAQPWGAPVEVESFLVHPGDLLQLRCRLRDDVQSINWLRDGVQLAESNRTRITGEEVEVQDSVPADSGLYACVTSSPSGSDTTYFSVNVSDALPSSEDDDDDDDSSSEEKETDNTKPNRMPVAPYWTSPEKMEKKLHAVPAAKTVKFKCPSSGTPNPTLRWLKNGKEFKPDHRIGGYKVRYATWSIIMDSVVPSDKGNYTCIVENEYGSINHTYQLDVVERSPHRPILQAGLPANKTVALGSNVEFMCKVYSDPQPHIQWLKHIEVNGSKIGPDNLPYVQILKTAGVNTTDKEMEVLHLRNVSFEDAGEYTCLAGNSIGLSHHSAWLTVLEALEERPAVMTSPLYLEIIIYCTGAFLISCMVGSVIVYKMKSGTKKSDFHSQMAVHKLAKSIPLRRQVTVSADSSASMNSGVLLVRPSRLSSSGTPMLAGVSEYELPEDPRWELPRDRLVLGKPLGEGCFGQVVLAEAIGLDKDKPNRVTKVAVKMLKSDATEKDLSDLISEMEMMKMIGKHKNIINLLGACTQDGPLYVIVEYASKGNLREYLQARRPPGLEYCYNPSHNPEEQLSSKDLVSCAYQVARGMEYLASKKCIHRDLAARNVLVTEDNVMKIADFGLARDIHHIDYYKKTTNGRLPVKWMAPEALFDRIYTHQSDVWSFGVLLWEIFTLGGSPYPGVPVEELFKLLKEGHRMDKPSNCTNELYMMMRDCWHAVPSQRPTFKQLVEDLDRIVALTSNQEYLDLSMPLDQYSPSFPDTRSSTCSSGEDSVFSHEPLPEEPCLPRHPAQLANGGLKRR

[5] = target: T2, AurA-HDAC6 (Homo sapiens, UniProt O14965); test: AurA-HDAC6 coimmunoprecipitation from hTERT-RPE1 cells; assay type: cell-based; conditions: pre-treatment of cells with inhibitor
T2 construct: endogenous in cells; host or cells: hTERT-RPE1
T2 sequence (O14965 1-403): T1 sequence (O14965 1-403)
T2 sequence (Q9UBN7 1-1215 partner): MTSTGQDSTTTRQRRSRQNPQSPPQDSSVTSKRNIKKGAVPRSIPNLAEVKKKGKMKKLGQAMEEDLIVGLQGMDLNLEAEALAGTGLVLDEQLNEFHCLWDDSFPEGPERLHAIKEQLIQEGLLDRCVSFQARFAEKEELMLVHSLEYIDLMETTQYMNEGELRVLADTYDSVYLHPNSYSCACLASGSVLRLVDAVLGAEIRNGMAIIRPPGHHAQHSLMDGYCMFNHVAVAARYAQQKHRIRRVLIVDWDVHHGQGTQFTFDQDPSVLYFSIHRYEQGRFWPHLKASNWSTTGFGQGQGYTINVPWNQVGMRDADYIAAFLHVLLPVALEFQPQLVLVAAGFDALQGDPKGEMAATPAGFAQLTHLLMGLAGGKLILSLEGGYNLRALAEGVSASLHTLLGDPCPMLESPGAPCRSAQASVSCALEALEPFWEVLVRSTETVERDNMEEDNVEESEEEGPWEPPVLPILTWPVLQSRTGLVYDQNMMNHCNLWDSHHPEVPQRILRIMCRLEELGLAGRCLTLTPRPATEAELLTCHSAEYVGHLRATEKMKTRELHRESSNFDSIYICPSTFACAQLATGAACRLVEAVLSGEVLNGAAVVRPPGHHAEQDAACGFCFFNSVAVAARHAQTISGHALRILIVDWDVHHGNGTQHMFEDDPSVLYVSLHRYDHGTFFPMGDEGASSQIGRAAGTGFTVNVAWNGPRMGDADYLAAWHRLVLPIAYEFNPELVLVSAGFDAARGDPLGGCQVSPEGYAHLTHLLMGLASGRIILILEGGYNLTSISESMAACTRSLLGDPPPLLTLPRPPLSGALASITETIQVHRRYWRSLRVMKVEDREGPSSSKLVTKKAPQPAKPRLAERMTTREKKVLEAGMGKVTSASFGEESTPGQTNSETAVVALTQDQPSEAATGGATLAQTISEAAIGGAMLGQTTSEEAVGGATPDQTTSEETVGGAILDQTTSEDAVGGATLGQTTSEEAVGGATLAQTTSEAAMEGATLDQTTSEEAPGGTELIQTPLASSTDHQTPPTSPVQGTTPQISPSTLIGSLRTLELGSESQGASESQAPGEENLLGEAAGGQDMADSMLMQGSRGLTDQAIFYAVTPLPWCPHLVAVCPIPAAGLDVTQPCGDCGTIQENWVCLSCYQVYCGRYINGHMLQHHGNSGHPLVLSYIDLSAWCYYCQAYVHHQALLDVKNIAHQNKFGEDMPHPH
Procedure: For microinjection, recombinant glutathione-S-transferase (GST), GST fused AurA mutants T288A and D274N) produced from BL21 (DE3) bacteria were purified using the MicroSpin GST Purification Module (Amersham Biotech.). Purified recombinant AurA was purchased from Upstate; this AurA was pre-activated based on incubation with ATP. […] To prepare lysates for Western blotting and IP, mammalian cells were disrupted by M-PER lysis buffer (Pierce) supplemented with EDTA-free protease inhibitor cocktail (Roche). Lysates used for IP were incubated overnight with antibody at 4° C., subsequently incubated for 2 hours with protein A/G-sepharose (Pierce), washed, and resolved by SDS-PAGE. Western blotting was performed using standard procedures and proteins visualized using the West-Pico system (Pierce). Antibodies used included mouse monoclonal antibody (mAb) anti-HEF1 2G9 (Pugacheva and Golemis, 2005), anti-α-tubulin mAb (Sigma), anti-AurA (BD Bioscience) for Western blotting, anti-AurA rabbit polyclonal (Cell Signaling) for IP, anti-Phospho-AurA/T288 (BioLegend), anti-Phospho-AurA/T288 (Cell Signaling), anti-HDAC6 rabbit polyclonal (Upstate; 1:5000), anti-HDAC2 rabbit polyclonal (Invitrogen) and mAb anti-β-actin (AC15, Sigma), anti-IFT88 and anti-IFT20. Secondary horseradish peroxidase (HRP)-conjugated antibodies were from Amersham Biotech.

HEF1 phosphorylation (115 kDa form) [2]: blocks
appearance of T288-phospho-AurA [2]: blocks appearance
AurA-HDAC6 coimmunoprecipitation [5]: not eliminated
Structure (SMILES): CCc1cccc(CC)c1NC(=O)N1Cc2n[nH]c(NC(=O)c3ccc(N4CCN(C)CC4)cc3)c2C1 [PHA-680632]
second wave of ciliary disassembly, at the time of mitosis ([1]; 500 nM, 18-24 hours after serum): completely eliminated
disassembly of cilia after serum stimulation ([1]; cells pre-treated for 3 hours with 500 nM, tracked 24 hours post serum): strongly reduced
IC50 [3]: 185 nM
IC50 [4]: 390 nM
